Reference: the supplement of paper PMC6045584
± gives the standard deviation of the averaged measurements.

Each test system was assayed with Cc1ccc(-c2cc(C(F)(F)F)nn2-c2ccc(S(N)(=O)=O)cc2)cc1 [CELECOXIB] (assay: surviving fraction relative to DMSO-only wells; higher = less growth inhibition). Conditions: 10 nM; exposure time: 5 days.
How it was run: (§1)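 Log-phase tumour cell lines were seeded at 250–500 cells per well in 384-well plates. After 24 hours they were exposed continuously for five days to inhibitors at 0.5, 1, 5, 10, 50, 100, 500 and 1000 nM. Viability was read by CellTiter-Glo luminescence after 10 minutes at room temperature, and surviving fraction is luminescence normalised to the median of DMSO-only wells. Each line was screened three times and kept only if replicate Pearson r >0.7 and median Z' >0.3.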

**Q.** SCC003 HEADNECK was tested. Which surviving fraction did it give?
**A.** 1.06 ± 0.027

Same assay, conditions: 50 nM; exposure time: 5 days

**Q.** For HS578T BREAST, which surviving fraction is on record?
**A.** 0.923 ± 0.12

**Q.** How did the surviving fraction turn out when “JURKAT HAEMATOPOIETIC AND LYMPHOID TISSUE” was run?
**A.** 0.986 ± 0.034

**Q.** MDAMB453 BREAST was tested. Which surviving fraction did it give?
**A.** 1.14 ± 0.021

**Q.** Which surviving fraction does the source give for S68 BREAST here?
**A.** 1 ± 0.29

**Q.** For SCC003 HEADNECK, which surviving fraction is on record?
**A.** 1.12 ± 0.11

Same assay, conditions: 100 nM; exposure time: 5 days

**Q.** HS578T BREAST was tested. Which surviving fraction did it give?
**A.** 1.11 ± 0.17

**Q.** How did the surviving fraction turn out when “JURKAT HAEMATOPOIETIC AND LYMPHOID TISSUE” was run?
**A.** 1 ± 0.03

**Q.** For MDAMB453 BREAST, which surviving fraction is on record?
**A.** 1.12 ± 0.03

**Q.** Which surviving fraction does the source give for S68 BREAST here?
**A.** 1.21 ± 0.15

**Q.** With SCC003 HEADNECK as the test system, how does the surviving fraction read?
**A.** 1.09 ± 0.049

Same assay, conditions: 500 nM; exposure time: 5 days

**Q.** For HS578T BREAST, which surviving fraction is on record?
**A.** 0.961 ± 0.083

**Q.** For “JURKAT HAEMATOPOIETIC AND LYMPHOID TISSUE”, which surviving fraction is on record?
**A.** 1.03 ± 0.013

**Q.** For MDAMB453 BREAST, which surviving fraction is on record?
**A.** 1.04 ± 0.044

**Q.** How did the surviving fraction turn out when S68 BREAST was run?
**A.** 0.95 ± 0.34

**Q.** With SCC003 HEADNECK as the test system, how does the surviving fraction read?
**A.** 1.13 ± 0.11

Same assay, conditions: 1000 nM; exposure time: 5 days

**Q.** For HS578T BREAST, which surviving fraction is on record?
**A.** 0.969 ± 0.1

**Q.** How did the surviving fraction turn out when “JURKAT HAEMATOPOIETIC AND LYMPHOID TISSUE” was run?
**A.** 0.975 ± 0.035

**Q.** For MDAMB453 BREAST, which surviving fraction is on record?
**A.** 1.09 ± 0.04

**Q.** Which surviving fraction does the source give for S68 BREAST here?
**A.** 1.2 ± 0.11

**Q.** SCC003 HEADNECK was tested. Which surviving fraction did it give?
**A.** 1.08 ± 0.067

Each test system was assayed with O=C(O)C1(C(=O)O)CCC1.[NH2-].[NH2-].[Pt+2] [CARBOPLATIN] in the same assay as above. Conditions: 0.5 nM; exposure time: 5 days.
How it was run: as §1

**Q.** For HS578T BREAST, which surviving fraction is on record?
**A.** 1.06 ± 0.25

**Q.** “JURKAT HAEMATOPOIETIC AND LYMPHOID TISSUE” was tested. Which surviving fraction did it give?
**A.** 1 ± 0.021

**Q.** With MDAMB453 BREAST as the test system, how does the surviving fraction read?
**A.** 1.07 ± 0.068

**Q.** For S68 BREAST, which surviving fraction is on record?
**A.** 1.08 ± 0.28

**Q.** Which surviving fraction does the source give for SCC003 HEADNECK here?
**A.** 1.1 ± 0.075

Same assay, conditions: 1 nM; exposure time: 5 days

**Q.** With HS578T BREAST as the test system, how does the surviving fraction read?
**A.** 1.04 ± 0.091

**Q.** “JURKAT HAEMATOPOIETIC AND LYMPHOID TISSUE” was tested. Which surviving fraction did it give?
**A.** 1.05 ± 0.043

**Q.** With MDAMB453 BREAST as the test system, how does the surviving fraction read?
**A.** 1.05 ± 0.07

**Q.** S68 BREAST was tested. Which surviving fraction did it give?
**A.** 1.01 ± 0.082

**Q.** For SCC003 HEADNECK, which surviving fraction is on record?
**A.** 1.06 ± 0.04

Same assay, conditions: 5 nM; exposure time: 5 days

**Q.** For HS578T BREAST, which surviving fraction is on record?
**A.** 1.07 ± 0.14

**Q.** For “JURKAT HAEMATOPOIETIC AND LYMPHOID TISSUE”, which surviving fraction is on record?
**A.** 1 ± 0.025

**Q.** With MDAMB453 BREAST as the test system, how does the surviving fraction read?
**A.** 1.15 ± 0.024

**Q.** With S68 BREAST as the test system, how does the surviving fraction read?
**A.** 0.9 ± 0.16

**Q.** For SCC003 HEADNECK, which surviving fraction is on record?
**A.** 1.1 ± 0.039

Same assay, conditions: 10 nM; exposure time: 5 days

**Q.** Which surviving fraction does the source give for HS578T BREAST here?
**A.** 1.12 ± 0.16

**Q.** For “JURKAT HAEMATOPOIETIC AND LYMPHOID TISSUE”, which surviving fraction is on record?
**A.** 1.03 ± 0.012

**Q.** MDAMB453 BREAST was tested. Which surviving fraction did it give?
**A.** 1.1 ± 0.076

**Q.** Which surviving fraction does the source give for S68 BREAST here?
**A.** 1.4 ± 0.15

**Q.** SCC003 HEADNECK was tested. Which surviving fraction did it give?
**A.** 1.04 ± 0.025

Same assay, conditions: 50 nM; exposure time: 5 days

**Q.** With HS578T BREAST as the test system, how does the surviving fraction read?
**A.** 0.964 ± 0.055

**Q.** With “JURKAT HAEMATOPOIETIC AND LYMPHOID TISSUE” as the test system, how does the surviving fraction read?
**A.** 1 ± 0.039

**Q.** For MDAMB453 BREAST, which surviving fraction is on record?
**A.** 1.07 ± 0.018

**Q.** Which surviving fraction does the source give for S68 BREAST here?
**A.** 1.22 ± 0.6

**Q.** How did the surviving fraction turn out when SCC003 HEADNECK was run?
**A.** 1.14 ± 0.027

Same assay, conditions: 100 nM; exposure time: 5 days

**Q.** With HS578T BREAST as the test system, how does the surviving fraction read?
**A.** 1.03 ± 0.13

**Q.** “JURKAT HAEMATOPOIETIC AND LYMPHOID TISSUE” was tested. Which surviving fraction did it give?
**A.** 1.07 ± 0.031

**Q.** MDAMB453 BREAST was tested. Which surviving fraction did it give?
**A.** 1.1 ± 0.069

**Q.** S68 BREAST was tested. Which surviving fraction did it give?
**A.** 1.14 ± 0.38
